Assay results as given in patent US20220306623A1, “PYRIDYL OR PYRIMIDYL MTOR KINASE INHIBITORS” (GLAXOSMITHKLINE INTELLECTUAL PROPERTY DEVELOPMENT LIMITED, priority 2019, published 2022).
Like-named read-outs stand apart in the source and are kept apart here.

Target: T1, mTOR (Homo sapiens, UniProt P42345)
T1 construct: capturing of endogenously expressed target proteins from cell extracts by a bead-immobilized capturing ligand; endogenous in cells; host or cells: HuT-78 cells (ECACC 88041901), cell lysate
Assay: mTOR kinobeads competition-binding assay
Conditions: HuT-78 cell lysate
Method: The affinity of test compounds for mTOR was determined in the mTOR kinobeads assay. This is a competition-binding assay based on the capturing of endogenously expressed target proteins from cell extracts by a bead-immobilized capturing ligand in the presence of the test compound.
HuT-78 cells (European Collection of Authenticated Cell Cultures, 88041901) were cultured according to vendor's instructions. Frozen cell pellets were homogenized in 3× pellet volumes lysis buffer (50 mM Tris-HCl, 0.4% (v/v) Igepal-CA630, 5% glycerol, 150 mM NaCl, 1.5 mM MgCl2, 25 mM NaF, 1 mM sodium vanadate, 1 mM DTT, pH 7.5, supplemented with EDTA-free protease inhibitor tablet (Roche)). The sample was dispersed using a Dounce homogenizer, kept rotating for 30 min at 4° C., and centrifuged for 10 min at 20000 gat 4° C. The supernatant was centrifuged again for 1 h at 145 000 g. The protein concentration was determined by Bradford assay (BioRad), aliquots were snap frozen in liquid nitrogen and stored at −80° C.
The capturing matrices were generated by derivatizing N-hydroxysuccinimide (NHS) activated Sepharose 4 beads (GE Healthcare) with the functionalized ligands Compound A and Compound C at a ligand density of 5 mM. Remaining NHS-groups were blocked with ethanolamine.
For the mTOR kinobeads assay the matrices were combined in a 1:1 ratio and equilibrated in DP buffer (50 mM Tris-HCl (pH 7.5), 0.4% (v/v) Igepal-CA630, 5% (v/v) glycerol, 150 mM NaCl, 1.5 mM MgCl2, 25 mM NaF, 1 mM Na3VO4, 1 mM dithiothreitol). All steps of the mTOR kinobeads assay were performed at 4° C. or on ice. The cell lysate was diluted with DP buffer to a final concentration of 5 mg/ml and a final detergent concentration of 0.4% (v/v) Igepal-CA630. For the assay 250 μg cell lysate and 2.5 μl capturing matrix per well (final assay volume: 75 μl) were incubated in the presence of test compounds in a 384-well filter plate (MultiScreenHTS HV Filter Plate, 0.45 μm, MZHVNOW50, Merck Millipore). Each plate contained 16 positive (100 μM Compound B) and 16 negative (2% v/v DMSO) control wells. Compounds were tested in a concentration-response applying 1:3 or 1:4 dilution steps for in total 11 data points. DMSO concentration was 2% (v/v). After 2 h incubation on an overhead shaker (Roto-Shake Genie, Scientific Industries Inc.) at 4° C. the non-bound fraction was removed by washing the beads with DP buffer. Proteins retained on the beads were eluted in SDS sample buffer (200 mM Tris (pH 7.4), 250 mM Trizma Base, 4% (w/v) SDS, 20% (v/v) glycerol, 0.01% (w/v) bromophenol blue, 50 mM dithiothreitol) into a collection plate (384 well polypropylene microplate, V-shape, Greiner, 781 280). Eluates were spotted on nitrocellulose membranes (400 nl per spot) using an automated pin-tool liquid transfer (Biomek FX, Beckman). After drying, the membranes were rehydrated in 20% (v/v) ethanol and blocked by incubation with Odyssey blocking buffer (LICOR, 927-40000) for 1 h at room temperature. Blocked membranes were incubated overnight at 25° C. with Odyssey blocking buffer supplemented with a specific anti-mTOR antibody (Cell Signaling, 2972; 1:500) and 0.4% TWEEN-20. Then the membranes were washed in PBST buffer and incubated for 60 minutes at room temperature with the detection antibody (IRDye™ labelled antibody from LI-COR) diluted in Odyssey blocking buffer (LICOR 927-40000) containing 0.2% TWEEN-20. Then the membranes were washed with PBST and finally rinsed twice with PBS buffer to remove residual Tween-20. The membranes were then scanned with the Odyssey® Infrared Imaging System (LI-COR Biosciences). Fluorescence signals were recorded and analyzed according to the instructions of the manufacturer. Concentration response curves were computed with the software Activity Base. All data were normalized to the mean of 16 high (negative control) and 16 low (positive control) control wells on each plate. […]

[1] = bead-immobilized capturing ligand, 2 h at 4° C., mean of multiple experiments, read-out: mean pIC50, mTOR kinobeads assay (converted)
[2] = selected compounds, mean, read-out: mTOR (mean pIC50 values when tested in the mTOR binding assay) (converted)

IC50 [1]	IC50 [2]	Structure (SMILES)
≤ 1.26 nM	0.794 nM	CC[C@H]1COCCN1c1cc(CS(C)(=O)=O)nc(-c2ccc3[nH]c(CNC)cc3n2)n1 [Example 1, [(5-{4-[(3S)-3-ethylmorpholin-4-yl]-6-(methanesulfonylmethyl)pyrimidin-2-yl}-1H-pyrrolo[3,2-b]pyridin-2-yl)methyl](methyl)amine]
≤ 1.26 nM	–	CC[C@H]1COCCN1c1cc(CS(C)(=O)=O)nc(-c2ccc3[nH]c(CO)cc3n2)n1 [Example 2, (S)-(5-(4-(3-ethylmorpholino)-6-((methylsulfonyl)methyl)pyrimidin-2-yl)-1H-pyrrolo[3,2-b]pyridin-2-yl)methanol]
≤ 1.26 nM	–	CC[C@H]1COCCN1c1cc(C2(S(C)(=O)=O)CCOCC2)nc(-c2ccc3[nH]c(CO)cc3n2)n1 [Example 4, (5-{4-[(3S)-3-ethylmorpholin-4-yl]-6-(4-methanesulfonyloxan-4-yl)pyrimidin-2-yl}-1H-pyrrolo[3,2-b]pyridin-2-yl)methanol]
≤ 1.26 nM	–	CC[C@H]1COCCN1c1cc(CS(N)(=O)=O)nc(-c2ccc3[nH]c(CNC)cc3n2)n1 [Example 6, {6-[(3S)-3-ethylmorpholin-4-yl]-2-{2-[(methylamino)methyl]-1H-pyrrolo[3,2-b]pyridin-5-yl}pyrimidin-4-yl}methanesulfonamide]
≤ 0.316 nM	–	CC[C@H]1COCCN1c1cc(CS(=O)(=O)N(C)C)nc(-c2ccc3[nH]c(CO)cc3n2)n1 [Example 9, 1-{6-[(3S)-3-ethylmorpholin-4-yl]-2-[2-(hydroxymethyl)-1H-pyrrolo[3,2-b]pyridin-5-yl]pyrimidin-4-yl}-N,N-dimethylmethanesulfonamide]
≤ 0.0794 nM	–	CC[C@H]1COCCN1c1cc(CS(=O)(=O)NC)nc(-c2ccc3[nH]c(CO)cc3n2)n1 [Example 10, 1-{6-[(3S)-3-ethylmorpholin-4-yl]-2-[2-(hydroxymethyl)-1H-pyrrolo[3,2-b]pyridin-5-yl]pyrimidin-4-yl}-N-methylmethanesulfonamide]
≤ 1.26 nM	–	CC[C@H]1COCCN1c1cc(C2(S(C)(=O)=O)CCOCC2)nc(-c2ccc3[nH]c(C)cc3n2)n1 [Example 13, (3S)-3-ethyl-4-[6-(4-methanesulfonyloxan-4-yl)-2-{2-methyl-1H-pyrrolo[3,2-b]pyridin-5-yl}pyrimidin-4-yl]morpholine]
≤ 0.2 nM	0.2 nM	CC[C@H]1COCC(=O)N1c1cc(CS(C)(=O)=O)nc(-c2ccc3[nH]c(C)cc3n2)n1 [Example 14, (5S)-5-ethyl-4-[6-(methanesulfonylmethyl)-2-{2-methyl-1H-pyrrolo[3,2-b]pyridin-5-yl}pyrimidin-4-yl]morpholin-3-one]
≤ 0.316 nM	0.316 nM	CCc1cc2nc(-c3nc(CS(C)(=O)=O)cc(N4C(=O)COC[C@@H]4CC)n3)ccc2[nH]1 [Example 15, (5S)-5-ethyl-4-(2-{2-ethyl-1H-pyrrolo[3,2-b]pyridin-5-yl}-6-(methanesulfonylmethyl)pyrimidin-4-yl)morpholin-3-one]
≤ 1.26 nM	0.631 nM	CC[C@H]1COCCN1c1cc(CS(=O)(=O)N(C)C)nc(-c2ccc3[nH]c(CNC)cc3n2)n1 [Example 16, 1-{6-[(3S)-3-ethylmorpholin-4-yl]-2-{2-[(methylamino)methyl]-1H-pyrrolo[3,2-b]pyridin-5-yl}pyrimidin-4-yl}-N,N-dimethylmethanesulfonamide]
–	6.31 nM	CC[C@H]1COCCN1c1cc(C2(S(C)(=O)=O)CCNCC2)cc(-c2ccc3[nH]c(C)cc3n2)n1 [Example 18, (S)-3-ethyl-4-(6-(2-methyl-1H-pyrrolo[3,2-b]pyridin-5-yl)-4-(4-(methylsulfonyl)piperidin-4-yl)pyridin-2-yl)morpholine]
≤ 1.26 nM	–	CC[C@H]1COCCN1c1cc(CS(N)(=O)=O)cc(-c2ccc3[nH]c(C)cc3n2)n1 [Example 23, (S)-(2-(3-ethylmorpholino)-6-(2-methyl-1H-pyrrolo[3,2-b]pyridin-5-yl)pyridin-4-yl)methanesulfonamide]
≤ 1.26 nM	0.501 nM	CC[C@H]1COCC(=O)N1c1cc(CS(C)(=O)=O)cc(-c2ccc3[nH]c(C)cc3n2)n1 [Example 24, (S)-5-ethyl-4-(6-(2-methyl-1H-pyrrolo[3,2-b]pyridin-5-yl)-4-((methylsulfonyl)methyl)pyridin-2-yl)morpholin-3-one]
≤ 1.26 nM	–	CC[C@H]1COCC(=O)N1c1cc(C2(S(C)(=O)=O)CCOCC2)cc(-c2ccc3[nH]c(C)cc3n2)n1 [Example 25, (S)-5-ethyl-4-(6-(2-methyl-1H-pyrrolo[3,2-b]pyridin-5-yl)-4-(4-(methylsulfonyl)tetrahydro-2H-pyran-4-yl)pyridin-2-yl)morpholin-3-one]
≤ 0.316 nM	–	CC[C@H]1COCC(=O)N1c1cc(C2(S(C)(=O)=O)CCOCC2)cc(-c2ccc3[nH]c(CO)cc3n2)n1 [Example 26]
≤ 1.26 nM	–	CC[C@H]1COCC(=O)N1c1cc(CS(C)(=O)=O)cc(-c2ccc3[nH]c(CO)cc3n2)n1 [Example 27]
